{"source": "patent US20110152249A1", "about": "“EVALUATING CENTRAL NERVOUS SYSTEM” (THE GENERAL HOSPITAL CORPORATION, priority 2004, published 2011)", "key": {"opioid naïve individuals": {"system": "opioid naïve individuals", "experiment": "fMRI response to morphine in opioid naïve individuals", "type": "in vivo, human", "source_text": "Some of these have an oppositely valenced signal to that observed for aversive painful stimuli. […] This observation is in counter distinction to that observed for cortical activation by painful stimuli (see above)."}, "healthy human volunteers": {"system": "healthy human volunteers", "source_text": "We also investigated the effects of the general anesthetic agent propofol on cerebral structures involved in the processing of vibrotactile information. Using positron emission tomography (PET) and the H(2)(15)O bolus technique, we measured regional distribution of cerebral blood flow (CBF) in eight healthy human volunteers. They were scanned under five different levels of propofol anesthesia. Using a computer-controlled infusion, the following plasma levels of propofol were targeted: Level W (Waking, 0 microg/ml), Level 1 (0.5 microg/ml), Level 2 (1.5 microg/ml), Level 3 (3.5 microg/ml), and Level R (Recovery). At each level of anesthesia, two 3-min scans were acquired with vibrotactile stimulation of the right forearm either on or off. The level of consciousness was evaluated before each scan by the response of the subject to a verbal command."}, "patient": {"system": "patient", "experiment": "Medication history of a patient with facial burning and numbness following trigeminal rhizotomy", "type": "in vivo, human", "details": "single patient; facial burning and numbness after rhizotomy for trigeminal neuralgia", "procedure": "In a similar manner as that described above for a healthy volunteer, we examined fMRI activation in a patient who had facial burning and numbness following trigeminal rhizotomy one year previously for trigeminal neuralgia. Medications, including gabapentin and tegretol, had been unhelpful. Careful questioning and psychophysical evaluation was performed. […] They also had decreased warm and cold sensation on the affected side vs. the intact side. They underwent functional neuroimaging for thermal stimuli applied to the V2 and V3 distributions on the right and left. FIGS. 3A-3E show the results of cortical activation from this patient. There was a decrease in activation to a 45° C. stimulus applied to the affected area and an apparent increase in signal for the same stimulus applied to the ipsilateral V3 distribution."}}, "note": "Where two headings read alike, the source gives them in different places.", "data": [{"compound": "CN1CC[C@]23c4c5ccc(O)c4O[C@H]2[C@@H](O)C=C[C@H]3[C@H]1C5", "note": "[morphine]", "values": [{"measurement": "fMRI activation in subcortical structures", "setting": "opioid naïve individuals", "result": "activation in deep subcortical structures including those involved in reward"}, {"measurement": "fMRI signal in the SI cortex", "setting": "opioid naïve individuals; low-dose morphine", "result": "decrease in signal in SI"}]}, {"compound": "CC(C)c1cccc(C(C)C)c1O", "note": "[propofol]", "values": [{"measurement": "level of consciousness", "setting": "healthy human volunteers; Level 1, target plasma 0.5 microg/ml", "result": "slightly drowsy"}, {"measurement": "vibration-induced increases in rCBF in the primary and secondary somatosensory cortex", "setting": "healthy human volunteers; Level 1 through 3 (0.5-3.5 microg/ml target plasma), vibrotactile stimulation of right forearm", "result": "suppressed vibration-induced increases in rCBF"}, {"measurement": "level of consciousness", "setting": "healthy human volunteers; Level 2, target plasma 1.5 microg/ml", "result": "slurred speech and slow response"}, {"measurement": "level of consciousness", "setting": "healthy human volunteers; Level 3, target plasma 3.5 microg/ml", "result": "not responding at all"}, {"measurement": "thalamic rCBF response to vibrotactile stimulation", "setting": "healthy human volunteers; Level 3 = 3.5 microg/ml target plasma, volunteers lost consciousness", "result": "abolished only at Level 3"}, {"measurement": "rCBF in the thalamus and in visual, parietal, and prefrontal cortical regions", "setting": "healthy human volunteers; during anesthesia, target plasma levels 0.5, 1.5, 3.5 microg/ml", "result": "reduced in a dose-dependent manner rCBF"}]}, {"compound": "NCC1(CC(=O)O)CCCCC1", "note": "[gabapentin]", "values": [{"measurement": "clinical benefit of medication", "setting": "patient", "result": "unhelpful"}]}, {"compound": "NC(=O)N1c2ccccc2C=Cc2ccccc21", "note": "[tegretol]", "values": [{"measurement": "clinical benefit of medication", "setting": "patient", "result": "unhelpful"}]}]}
